{"source": "patent US20200016173A1", "about": "(CHINA MEDICAL UNIVERSITY, priority 2016, published 2020)", "key": {"[1]": {"tested_on": "human stomach gastric carcinoma (SNU-1) xenograft", "experiment": "human-tumor xenograft in athymic nude mice", "assay_type": "in vivo", "settings": "I.P., 5-FU 5 mg/kg, Exe 100 mg/kg, 3 times/wk for 4-wks"}, "gastric cancer": {"tested_on": "gastric cancer", "settings": "fluorouracil chemotherapy, GCa patients; cited from earlier work"}}}
{"smiles": "O=c1[nH]cc(F)c(=O)[nH]1", "note": "[5-FU, fluorouracil]", "values": [{"measurement": "tumor growth", "setting": "[1]", "value": "suppress"}, {"measurement": "toxicity (patients with other gastrointestinal malignancies)", "setting": "gastric cancer", "value": "> 50", "unit": "% patients"}]}
